Consider 37 compounds from patent US10676431B2, “Phenylpyrrolidinone formyl peptide 2 receptor agonists” (BRISTOL-MYERS SQUIBB COMPANY, priority 2018, dated 2020).

One assay concerns the target human FPR2 (Homo sapiens (Human), UniProt P25090). Kind of assay: FPR2 cyclic adenosine monophosphate (cAMP) assay. It is filed as cell-based. The settings on record: CHO cells overexpressing human FPR2; forskolin 5 μM, IBMX 200 μM; inhibition of cAMP production, HTRF; read-out: hFPR2 cAMP2 EC50. On the procedure:
(§1) FPR2 and FPR1 Cyclic Adenosine Monophosphate (cAMP) Assays. A mixture of forskolin (5 μM final for FPR2 or 10 μM final for FPR1) and IBMX (200 μM final) were added to 384-well Proxiplates (Perkin-Elmer) pre-dotted with test compounds in DMSO (1% final) at final concentrations in the range of 0.020 nM to 100 μM. Chinese Hamster Ovary cells (CHO) overexpressing human FPR1 or human FPR2 receptors were cultured in F-12 (Ham's) medium supplemented with 10% qualified FBS, 250 μg/ml zeocin and 300 μg/ml hygromycin (Life Technologies). Reactions were initiated by adding 2,000 human FPR2 cells per well or 4,000 human FPR1 cells per well in Dulbecco's PBS (with calcium and magnesium) (Life Technologies) supplemented with 0.1% BSA (Perkin-Elmer). The reaction mixtures were incubated for 30 min at room temperature. The level of intracellular cAMP was determined using the HTRF HiRange cAMP assay reagent kit (Cisbio) according to manufacturer's instruction. Solutions of cryptate conjugated anti-cAMP and d2 fluorophore-labelled cAMP were made in a supplied lysis buffer separately. Upon completion of the reaction, the cells were lysed with equal volume of the d2-cAMP solution and anti-cAMP solution. After a 1-h room temperature incubation, time-resolved fluorescence intensity was measured using the Envision (Perkin-Elmer) at 400 nm excitation and dual emission at 590 nm and 665 nm. A calibration curve was constructed with an external cAMP standard at concentrations ranging from 1 μM to 0.1 pM by plotting the fluorescent intensity ratio from 665 nm emission to the intensity from the 590 nm emission against cAMP concentrations. The potency and activity of a compound to inhibit cAMP production was then determined by fitting to a 4-parametric logistic equation from a plot of cAMP level versus compound concentrations.

In the next assay the target is human FPR1 (Homo sapiens (Human), UniProt P21462). Kind of assay: FPR1 cyclic adenosine monophosphate (cAMP) assay. The format is cell-based. Conditions: CHO cells overexpressing human FPR1; forskolin 10 μM, IBMX 200 μM; inhibition of cAMP production, HTRF; read-out: hFPR1 cAMP EC50. On the procedure:
as §1, with “After a 1-h room temperature incubation, time-resolved fluorescence intensity was measured using the Envision (Perkin-Elmer) at 400 nm excitation and dual emission at 590 nm and 665 nm. A calibration curve was constructed with an external cAMP standard at concentrations ranging from 1 μM to 0.1 pM by plotting the fluorescent intensity ratio from 665 nm emission to the intensity from the 590 nm emission against cAMP concentrations.” left out

human FPR2, sequence (P25090 whole entry): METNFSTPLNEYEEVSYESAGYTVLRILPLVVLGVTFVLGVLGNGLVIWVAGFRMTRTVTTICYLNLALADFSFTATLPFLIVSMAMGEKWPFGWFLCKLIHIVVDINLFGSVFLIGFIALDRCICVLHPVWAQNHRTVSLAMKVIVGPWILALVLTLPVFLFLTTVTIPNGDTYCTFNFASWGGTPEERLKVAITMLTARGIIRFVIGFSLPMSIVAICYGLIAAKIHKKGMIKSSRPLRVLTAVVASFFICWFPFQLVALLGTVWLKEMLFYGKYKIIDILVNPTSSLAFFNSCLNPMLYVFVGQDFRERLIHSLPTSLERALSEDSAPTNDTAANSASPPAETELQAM
human FPR1, sequence (P21462 whole entry): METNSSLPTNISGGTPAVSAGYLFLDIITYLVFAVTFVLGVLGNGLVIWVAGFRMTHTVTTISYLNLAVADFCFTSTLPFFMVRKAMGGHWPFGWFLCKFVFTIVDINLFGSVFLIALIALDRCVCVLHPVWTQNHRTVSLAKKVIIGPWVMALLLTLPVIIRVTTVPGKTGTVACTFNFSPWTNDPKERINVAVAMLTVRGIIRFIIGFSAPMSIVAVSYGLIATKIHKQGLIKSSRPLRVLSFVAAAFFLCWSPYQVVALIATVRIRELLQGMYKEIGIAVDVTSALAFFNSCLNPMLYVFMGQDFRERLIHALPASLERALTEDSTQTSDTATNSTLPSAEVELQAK

With `CC1C[C@@H](NC(=O)Nc2ccc(Cl)cc2F)C(=O)N1c1ccc(-c2ccccc2P(C)(C)=O)c(F)c1F` (stereo in doubt) [Example 109, 1-(4-Chloro-2-fluorophenyl)-3-(1-(2′-(dimethylphosphoryl)-2,3-difluoro-[1,1′-biphenyl]-4-yl)-5-methyl-2-oxopyrrolidin-3-yl)urea], the EC50 amounted to 0.00044 µM at human FPR2 and 0.39 µM at human FPR1. The matching figures for `CS(=O)(=O)Nc1ccccc1-c1ccc(N2CC[C@@H](NC(=O)Nc3ccc(Cl)cc3)C2=O)c(F)c1F` [Example 1, (R)—N-(4′-(3-(3-(4-Chlorophenyl)ureido)-2-oxopyrrolidin-1-yl)-2′,3′-difluoro-[1,1′-biphenyl]-2-yl)methanesulfonamide]: 0.00043 µM and 0.2 µM. For `O=C(Nc1ccc(Cl)cc1F)N[C@@H]1CCN(c2ccc(-c3ccccc3CO)c(F)c2F)C1=O` [Example 2], the EC50 on human FPR2 was found to be 0.0042 µM; on human FPR1, 0.36 µM.

For the compound `O=C(Nc1ccc(Cl)cc1)N[C@@H]1CCN(c2ccc(-c3ccccc3CO)c(F)c2F)C1=O` [Example 3], the figures for the EC50 on human FPR2 and at human FPR1 were 0.0011 µM and 0.22 µM, respectively. In the same order, the values of `CS(=O)(=O)Nc1ccccc1-c1ccc(N2CC[C@@H](NC(=O)Nc3c(F)cc(Cl)cc3F)C2=O)c(F)c1F` [Example 4] are 0.00093 µM and 1.7 µM.

For the compound `CS(=O)(=O)Nc1ccccc1-c1ccc(N2CC[C@@H](NC(=O)Nc3ccc(Cl)cc3F)C2=O)c(F)c1F` [Example 5], the results for the EC50 at human FPR2 and on human FPR1 were 0.00068 µM and 0.23 µM, respectively. The matching figures for `CS(=O)(=O)Nc1ccccc1-c1ccc(N2CC[C@@H](NC(=O)Nc3ccc(C(F)(F)F)cc3)C2=O)c(F)c1F` [Example 6]: 0.001 µM and 0.19 µM.

Turning to `CS(=O)(=O)c1ccccc1-c1ccc(N2CC[C@@H](NC(=O)Nc3ccc(Cl)cc3F)C2=O)c(F)c1F` [Example 7], the figures for the EC50 on human FPR2 and at human FPR1 were 0.0021 µM and 0.14 µM, respectively. The matching figures for `N#Cc1ccccc1-c1ccc(N2CC[C@@H](NC(=O)Nc3ccc(Cl)cc3)C2=O)c(F)c1F` [Example 8]: 0.002 µM and 0.061 µM. In the same order, the values of `N#Cc1ccccc1-c1ccc(N2CC[C@@H](NC(=O)Nc3ccc(Cl)cc3F)C2=O)c(F)c1F` [Example 9] are 0.0021 µM and 0.031 µM. In the same order, the values of `CS(=O)(=O)c1ccccc1-c1ccc(N2CC[C@@H](NC(=O)Nc3ccc(Cl)cc3)C2=O)c(F)c1F` [Example 10] are 0.0022 µM and 0.13 µM. In the case of `CS(=O)(=O)c1ccccc1-c1ccc(N2CC[C@@H](NC(=O)Nc3ccc(C(F)(F)F)cc3)C2=O)c(F)c1F` [Example 11], the EC50 was found to be 0.0026 µM on human FPR2 and 0.29 µM on human FPR1. The matching figures for `CC(N)c1cccc(-c2ccc(N3CC[C@@H](NC(=O)Nc4ccc(Cl)cc4)C3=O)c(F)c2F)c1` (stereo partly shown) [Example 12]: 0.0025 µM and 0.45 µM.

Regarding `CS(=O)(=O)Nc1ccccc1-c1ccc(N2CC[C@@H](NC(=O)Nc3ncc(Cl)cc3F)C2=O)c(F)c1F` [Example 13], the EC50 on human FPR2 amounted to 0.0065 µM; at human FPR1, 2.5 µM.

In the case of `CS(=O)(=O)Nc1ccccc1-c1ccc(N2CC[C@@H](NC(=O)Nc3ccc(C(F)(F)F)cc3)C2=O)cc1` [Example 14], the 50% effective concentration (EC50) at human FPR2 was determined as 0.0072 µM; at human FPR1, 0.6 µM. In the same order, the values of `CS(=O)(=O)Nc1ccccc1-c1ccc(N2CC[C@@H](NC(=O)Nc3cnc(Cl)cn3)C2=O)c(F)c1F` [Example 15] are 0.01 µM and 1.5 µM.

Take `O=C(Nc1ccc(Cl)cc1)N[C@@H]1CCN(c2ccc(-c3ccccc3F)c(F)c2F)C1=O` [Example 16]: the EC50 at human FPR2 is 0.012 µM; at human FPR1 it was 0.12 µM. In the same order, the values of `CS(=O)(=O)Nc1ccccc1-c1ccc(N2CC[C@@H](NC(=O)Nc3ccc(Cl)cn3)C2=O)c(F)c1F` [Example 17] are 0.016 µM and 4.1 µM. In the same order, the values of `CS(=O)(=O)Nc1ccccc1-c1ccc(N2CC[C@@H](NC(=O)Nc3cnc(C(F)(F)F)cn3)C2=O)c(F)c1F` [Example 18] are 0.02 µM and 2.1 µM. The matching figures for `O=C(Nc1ccc(Cl)cc1)N[C@@H]1CCN(c2ccc(-c3cccnc3F)c(F)c2F)C1=O` [Example 19]: 0.022 µM and 0.078 µM.

For the compound `CS(=O)(=O)Nc1ccccc1-c1ccc(N2CC[C@@H](NC(=O)Nc3ccc(C(F)(F)F)nc3)C2=O)cc1` [Example 20], the concentration for a half-maximal effect (EC50) on human FPR2 is 0.024 µM; at human FPR1, more than 10 µM. In the same order, the values of `O=C(Nc1ccc(Cl)cc1F)N[C@@H]1CCN(c2ccc(-c3ccccc3F)c(F)c2F)C1=O` [Example 21] are 0.031 µM and 0.39 µM. In the same order, the values of `CC(N)c1cccc(-c2ccc(N3CC[C@@H](NC(=O)Nc4ccc(Cl)cc4)C3=O)c(F)c2F)c1` (stereo partly shown) [Example 22] are 0.033 µM and 1.5 µM.

For the compound `CS(=O)(=O)Nc1ncccc1-c1ccc(N2CC[C@@H](NC(=O)Nc3ccc(Cl)cc3F)C2=O)c(F)c1F` [Example 23], the results for the concentration giving a half-maximal response (EC50) on human FPR2 and at human FPR1 were 0.0082 µM and 0.7 µM, respectively. Consider `CS(=O)(=O)c1ccccc1-c1ccc(N2CC[C@@H](NC(=O)Nc3ccc(Cl)cn3)C2=O)c(F)c1F` [Example 24], for which the figures for the EC50 on human FPR2 and on human FPR1 were 0.022 µM and 1.4 µM, respectively.

Consider `CP(C)(=O)c1ccccc1-c1ccc(N2CC[C@@H](NC(=O)Nc3ccc(Cl)cc3F)C2=O)c(F)c1F` [Example 25, (R)-1-(4-chloro-2-fluorophenyl)-3-(1-(2′-(dimethylphosphoryl)-2,3-difluoro-[1,1′-biphenyl]-4-yl)-2-oxopyrrolidin-3-yl)urea], for which the EC50 at human FPR2 came out at 0.00053 µM; at human FPR1, 0.26 µM. In the same order, the values of `CS(=O)(=O)Nc1ccccc1-c1ccc(N2CC[C@@H](NC(=O)Nc3ccc(Cl)cc3F)C2=O)c(C2CC2)c1` [Example 26] are 0.00055 µM and 0.047 µM.

For `CC(C)c1cc(-c2ccccc2NS(C)(=O)=O)ccc1N1CC[C@@H](NC(=O)Nc2ccc(Cl)cc2F)C1=O` [Example 27], the EC50 turned out to be 0.0005 µM on human FPR2 and 0.11 µM on human FPR1.

On to `Cn1ccc(-c2ccc(N3CC[C@@H](NC(=O)Nc4ccc(Cl)cc4F)C3=O)c(F)c2F)n1` [Example 28], for which the EC50 on human FPR2 stood at 0.0098 µM; on human FPR1 it was 0.55 µM. As for `CS(=O)(=O)c1ccccc1-c1ccc(N2CC[C@@H](NC(=O)Nc3ccc(C(F)(F)F)cc3F)C2=O)c(F)c1F` [Example 29], the 50% effective concentration (EC50) on human FPR2 was found to be 0.007 µM; at human FPR1 it was 0.19 µM.

Consider `COC[C@@H]1C[C@@H](NC(=O)Nc2ccc(Cl)cc2F)C(=O)N1c1ccc(-c2ccccc2P(C)(C)=O)c(F)c1F` [Example 30], for which the results for the EC50 at human FPR2 and on human FPR1 were 0.00022 µM and 0.083 µM, respectively. On to `O=C(Nc1ccc(C(F)(F)F)cc1F)N[C@@H]1CCN(c2ccc(-c3ccccc3CO)c(F)c2F)C1=O` [Example 31], for which the EC50 was determined as 0.004 µM on human FPR2 and 0.43 µM at human FPR1. Turning to `CS(=O)(=O)Nc1ccccc1-c1ccc(N2CC[C@@H](NC(=O)Nc3ccc(Cl)cc3F)C2=O)c(F)c1` [Example 32], the EC50 at human FPR2 is 0.00091 µM; on human FPR1 it was 0.25 µM. On to `CCOP(C)(=O)c1ccccc1-c1ccc(N2CC[C@@H](NC(=O)Nc3ccc(Cl)cc3F)C2=O)c(F)c1F` (stereo partly shown) [Example 101], for which, at human FPR2, the EC50 was determined as 0.00066 µM.

As to `CCOP(C)(=O)c1ccccc1-c1ccc(N2CC[C@@H](NC(=O)Nc3ccc(C(F)(F)F)cc3F)C2=O)c(F)c1F` (stereo partly shown) [Example 104], at human FPR2, the EC50 is 0.0052 µM. Same read-out and setting: then `CCOP(C)(=O)c1ccccc1-c1ccc(N2CC[C@@H](NC(=O)Nc3ccc(C(F)(F)F)cc3F)C2=O)c(F)c1F` (stereo partly shown) [Example 105], with 0.0069 µM.

Take `COP(=O)(OC)c1ccccc1-c1ccc(N2CC[C@@H](NC(=O)Nc3ccc(C(F)(F)F)cc3F)C2=O)c(F)c1F` [Example 108]: the EC50 on human FPR2 worked out at 0.0014 µM.
